In article PMC10107299, “Neutralizing the Impact of the Virulence Factor LecA from Pseudomonas aeruginosa on Human Cells with New Glycomimetic Inhibitors” (Angewandte Chemie (International Ed. in English), 2023):

How the values were obtained:
[1] = In vivo pharmacokinetic study in mice; parameters: species or system CD-1 mice; conditions: 1 mg kg^−1 i.v.; for Cmax: male, CD-1, mouse, urine, iv
Procedure: Encouraged by these promising in vitro results, an in vivo pharmacokinetic study was conducted for H2 and L2 in mice (1 mg kg^−1, i. v.) and in rats for L2 (10 mg kg^−1, i. v.). Compound concentrations were monitored in plasma and urine (Figure 6). H2 and L2 were cleared from mouse plasma within 1 h. Both compounds rapidly reached high concentrations in urine, several orders of magnitude above their respective in vitro LecA binding affinity. In fact, concentrations above the K ds were detected over the entire observation period of 5 h. […] In rats, higher amounts of L2 were detected both in plasma and urine, not solely corresponding to the 10‐fold increased dose. […] Importantly, high levels of L2 were present in rat urine even 24 h after administration.
Pharmacokinetic studies in mice
For pharmacokinetic experiments, outbred male CD-1 mice (Charles River, Germany), 4-weeks-old, were used. The animal studies were conducted in accordance with the recommendations of the European Community (Directive 86/609/EEC, 24 November 1986). All animal procedures were performed in strict accordance with the German regulations of the Society for Laboratory Animal Science (GV-SOLAS) and the European Health Law of the Federation of Laboratory Animal Science Associations (FELASA). Animals were excluded from further analysis if sacrifice was necessary according to the humane endpoints established by the ethical board. All experiments were approved by the ethical board of the Niedersächsisches Landesamt für Verbraucherschutz und Lebensmittelsicherheit, Oldenburg, Germany (33.19-42502-04-20/3522). L2 and H2 were dissolved in water and administered in individual PK studies (N = 2 per study) at 1 mg/kg intravenously. Up to 25 µl blood was collected from the lateral tail vein and time points t = 0.25, 0.5, 1 and 3 hours. At t = 5 hours animals were euthanized to collect blood. At time points t = 0.25, 0.5, 1, 3 and 5 hours spontaneous urine was collected as well. Whole blood was collected into Eppendorf tubes coated with 0.5 M EDTA and immediately spun down at […]
15870 x g for 10 min at 4 °C. […]
Rats were provided with a catheter in the jugular vein 2 - 3 days prior to drug administration and blood sampling. According to national animal welfare guidelines, rats were treated once with Carprofen (5 mg/kg) directly after catheterization. Catheter was rinsed daily with K3EDTA. […]
First, a calibration curve was prepared by spiking different concentrations of L2 and H2 into mouse plasma, rat plasma or mouse urine (matrix for mouse and rat PK samples) from CD-1 mice. […] Samples from the mouse PK study with H2 in mice and from the rat PK study with L2 were analyzed via HPLC-MS/MS as described in the HPLC-MS analysis section above. PK samples from the mouse PK study with L2 were analyzed using an Agilent 1290 […]

plasma protein = experiment: Plasma protein binding (rapid equilibrium device), human plasma; assay type: in vitro ADME; conditions: 1 µM
Procedure: mixer (Eppendorf). Acetonitrile and caffeine were dispensed using a Mantis Formulatrix. Then samples were centrifuged for 20 min at 2.270 x g at 4 °C and the supernatants were transferred to 96-well Greiner V-bottom plates. Peak areas of each compound and of the internal standard were analyzed using the MultiQuant 3.0 software (AB Sciex). Peak areas of the respective compound were normalized to the internal standard peak area and to the respective peak areas at time point 0 min: (C/D)/(A/B) with A: peak area of the compound at time point 0 min, B: peak area of the internal standard at time point 0 min, C: peak area of the compound at the respective time point, D: peak area of the internal standard at the respective time point. […]
Assessment of plasma protein binding
Plasma protein binding was assessed using the rapid equilibrium device (RED) system from ThermoFisher. Compounds were dissolved in DMSO. […]
high plasma protein binding. Compounds were diluted in murine plasma (from CD-1 mice, pooled) or in human plasma (human donors, both genders, pooled) to a final concentration of 1 µM. Dialysis buffer and plasma samples were added to the respective chambers according the manufacturer’s protocol. The RED plate was sealed with a tape and incubated at 37 °C for 2 hours at 800 rpm on an Eppendorf MixMate vortex-mixer. Then samples were withdrawn from the respective chambers. To 25 µL of each dialysis sample, 25 µL of plasma and to 25 µL of plasma sample, 25 µL of dialysis buffer was added. Then 150 µL ice-cold extraction solvent (ACN/H2O (90:10) containing 12.5 ng/mL caffeine as internal standard) was added. Samples were incubated for 30 min on ice. Then samples were centrifuged at 4 °C at 2270 x g for 10 min.
Supernatants were transferred to Greiner V-bottom 96-well plates and sealed with a tape. The […]
percentage of bound compound was calculated as follows:
(1) % free = (concentration buffer chamber / concentration plasma chamber) *100 […]
Samples were analyzed using an Agilent 1290 Infinity II HPLC system coupled to an AB Sciex QTrap 6500plus mass spectrometer. LC conditions were as follows: column: Agilent […]
Zorbax Eclipse Plus C18, 50x2.1 mm, 1.8 µm; temperature: 30 °C; injection volume: 5 µL per […]
sample; flow rate: 700 µL/min. Samples were run under acidic and buffered conditions.
Solvents for acidic conditions: A1: water + 0.1% formic acid; solvent B1: 95% acetonitrile/5% […]
H2O + 0.1% formic acid; solvents for buffered conditions: A2: 95% water + 5% acetonitrile + […]
5 mM ammonium acetate + 40 µL/L acetic acid; B2: 95% acetonitrile + 5% water + 5 mM […]
ammonium acetate + 40 µL/L acetic acid. The same gradient was applied for acidic and […]
buffered conditions: 99% A at 0 min, 99% A until 1 min, 99% - 0% A from 1 min to 4.0 min, […]
0% A until 5.0 min. Mass transitions for controls and compounds are depicted in the following […]

O=C(CCc1ccc(O[C@@H]2O[C@H](CO)[C@H](O)[C@H](O)[C@H]2O)cc1)Nc1ccc(OCCOc2ccc(NC(=O)CCc3ccc(O[C@@H]4O[C@H](CO)[C@H](O)[C@H](O)[C@H]4O)cc3)cn2)nc1 [Compound H2]
Time to clearance from mouse plasma [1]: ≤ 1 h | Cmax [1]: 63 µM

O=C(CCc1ccc(O[C@@H]2O[C@H](CO)[C@H](O)[C@H](O)[C@H]2O)cc1)Nc1ccc(CCc2ccc(NC(=O)CCc3ccc(O[C@@H]4O[C@H](CO)[C@H](O)[C@H](O)[C@H]4O)cc3)cc2S(=O)(=O)O)c(S(=O)(=O)O)c1 [Compound L2]
PPB Human (plasma protein): 38.5 ± 12.4% | Time to clearance from mouse plasma [1]: ≤ 1 h | Cmax [1]: 13.4 µM
